Common to all, as to test: NCI tumour cell line growth inhibition, 48 h
In test [1] the test system is UO-31 renal.
The subject of test [2] is RPMI-8226 leukemia.
Test [3] concerns TK-10 renal.
The test system of test [4] is MALME-3M melanoma.
For test [5], the system named is CAKI-1 renal.
In test [6] the test system is SF-295 CNS.
Test [7] has as its system HS 578T breast.
Test [8] concerns DU-145 prostate.

Several values for one entry are separate records, joined by “and”; a condition that tells them apart may be missing. Identical values can stand only once.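 Assay format: 96-well plates, 48-hour exposure. At the TGI there is no net growth.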

`CC(=O)OCC1OC(n2c3c(cc(C#N)c2=S)CCCCC3)C(OC(C)=O)C(OC(C)=O)C1OC(C)=O` (stereo not drawn): the TGI in test [1], in test [2], in test [3], in test [4], in test [5] and in test [6] was more than 100 µM each time. Moreover, the TGI in test [7] and in test [8] was more than 100 µM throughout.

Regarding `C=CCOc1ccc(C2C(C(=O)OCC)C(=O)CC(C)(O)C2C(=O)OCC)cc1OC` (stereo not drawn), the TGI in test [1], in test [2], in test [3], in test [4], in test [5] and in test [6] was more than 100 µM each time. For the same compound, the TGI in test [7] and in test [8] was more than 100 µM each time.

With `C#C[C@]1(O)CC[C@H]2[C@@H]3CCC4=C/C(=N/OC(=O)c5cccc6c(=O)c7ccccc7[nH]c56)CC[C@@H]4[C@H]3CC[C@@]21C`, the TGI in test [1] was more than 100 µM; in test [2] it was 54 µM; in test [3] it was more than 100 µM; in test [4], more than 100 µM; in test [5], more than 100 µM; in test [6], more than 100 µM. Further, the TGI in test [7] and in test [8] was more than 100 µM in each case.

Consider `N#Cc1c(Cl)cc(Cl)n2c1nc1ccccc12`, for which the TGI in test [1] came out at 13.5 µM; in test [2], 58.9 µM; in test [3] it was 18.1 µM; in test [4], 7.36 µM; in test [5], 7.67 µM; in test [6], 32.4 µM. The TGI is 32.8 µM in test [7] and 31.8 µM in test [8].

With `COC1C=COC2(C)Oc3c(C)c(O)c4c(O)c(c(C5SCCS5)c(O)c4c3C2=O)NC(=O)C(C)=C/C=C\C(C)C2OC(C)(C)OC(C2C)C(C)C(OC(C)=O)C1C` (stereo not drawn), the TGI in test [1] was 32.6 µM; in test [2], more than 100 µM; in test [3], 24.8 µM; in test [4], 36.5 µM; in test [5] it was 27.7 µM; in test [6], 28.7 µM. The values for the TGI in test [7] and in test [8] were 63.3 µM and 59.8 µM, respectively.

With `Cc1cc(NCc2ccccc2)c2ccccc2[n+]1CCCCCCCCCC[n+]1c(C)cc(NCc2ccccc2)c2ccccc21`, the TGI in test [1] is 7.15 µM; in test [2], 1.44 µM; in test [3] it was 3.17 µM; in test [4] it was more than 100 µM; in test [5], 5.48 µM; in test [6], 2.49 µM. Moreover, the results for the TGI in test [7] and in test [8] were 11.6 µM and 10.9 µM, respectively.

Consider `CSc1ncnc2c1ncn2CCC#N`, for which the TGI in test [1], in test [2], in test [3], in test [4], in test [5] and in test [6] was more than 100 µM each time. Further, the TGI in test [7] and in test [8] was more than 100 µM throughout.

As for `[N-]=[N+]=NC1=C(c2ccccn2)C(=O)c2cccc3cccc1c23`, the TGI in test [1] is 36.1 µM; in test [2] it was more than 100 µM; in test [3], more than 100 µM; in test [4], more than 100 µM; in test [5] it was more than 100 µM; in test [6], more than 100 µM. For the same compound, the TGI in test [7] and in test [8] was more than 100 µM each time.

With `CCOC(=O)NC(Nc1ccc([N+](=O)[O-])cc1)(C(F)(F)F)C(F)(F)F`, the TGI in test [1], in test [2], in test [3], in test [4], in test [5] and in test [6] was more than 100 µM throughout. Further, the TGI in test [7] and in test [8] was more than 100 µM throughout.

Consider `CC(C)(C)C(=O)CC1=Nc2ccccc2SC1(O)CC(=O)C(C)(C)C` (stereo not drawn), for which the TGI is 44.2 µM in test [1]; 25.7 µM in test [2]; more than 100 µM in test [3]; more than 100 µM in test [4]; 56.8 µM in test [5]; 68.6 µM in test [6]. Also, the TGI in test [7] is 71.7 µM; in test [8] it was more than 100 µM.

Turning to `CC1=NNC(=O)C1C(CC(=O)c1c[nH]c2ccccc12)C(=O)O` (stereo not drawn), the TGI in test [1], in test [2], in test [3], in test [4], in test [5] and in test [6] was more than 100 µM in each case. Also, the TGI in test [7] and in test [8] was more than 100 µM in each case.

Turning to `C=C(Cl)C(C)(Cl)CCC(Br)C(C)(C)Cl` (stereo not drawn), the TGI in test [1] was 29.3 µM; in test [2], 50.6 µM; in test [3] it was more than 100 µM; in test [4] it was 38.4 µM; in test [5] it was 50.1 µM; in test [6], 88.6 µM. The TGI is 57.8 µM in test [7] and 47.5 µM in test [8].

Take `CC(C(O)Cc1ccccc1)N(C)N=Nc1ccc([N+](=O)[O-])cc1` (stereo not drawn): the TGI is 31.8 µM in test [1]; 55.5 µM in test [2]; 47.7 µM in test [3]; 43.3 µM in test [4]; 51.8 µM in test [5]; 46.2 µM in test [6]. Further, the TGI in test [7] came out at 55.6 µM; in test [8] it was 85.5 µM.

Take `CC1=C(CO)C(=O)O[C@@H]([C@@H](CO)[C@H]2CCC3C4C[C@@H](O)[C@@]5(O)CC=CC(=O)[C@]5(C)C4CC[C@@]32C)C1` (stereo partly drawn): the TGI in test [1] was 57.1 µM; in test [2], more than 100 µM; in test [3], more than 100 µM; in test [4], more than 100 µM; in test [5], more than 100 µM; in test [6], more than 100 µM. For the same compound, the TGI in test [7] and in test [8] was more than 100 µM each time.

As to `O=C1c2cccnc2-c2nccc3c2c1nc1cc(Br)ccc13`, the TGI in test [1] turned out to be 0.568 µM; in test [2], 0.448 µM; in test [3] it was 2.33 µM; in test [4] it was 0.374 µM; in test [5], 0.591 µM; in test [6], 0.72 µM. Further, the TGI in test [7] came out at 0.942 µM; in test [8] it was 0.421 µM.

For `C[N+]12CCCCC1C(CN1C(=O)Cc3c4ccccc4c(c4ccccc34)CC1=O)CCC2` (stereo not drawn), the TGI in test [1], in test [2], in test [3], in test [4], in test [5] and in test [6] was more than 100 µM throughout. In addition, the TGI in test [7] and in test [8] was more than 100 µM in each case.

In the case of `CC12CCC(O)CC1CCC1C2CCC2(C)C(C(=O)CC(O)C(F)(F)F)CCC12` (stereo not drawn), the TGI is 11.1 µM in test [1]; 26.6 µM in test [2]; more than 100 µM in test [3]; more than 100 µM in test [4]; more than 62.3 µM in test [5]; 26.7 µM in test [6]. Moreover, the TGI in test [7] is more than 80 µM; in test [8], more than 100 µM.

With `On1c(-c2ccccc2)nc2ccccc2c1=S`, the TGI in test [1], in test [2], in test [3], in test [4], in test [5] and in test [6] was more than 100 µM throughout. Also, the TGI in test [7] and in test [8] was more than 100 µM each time.

In the case of `Nc1ccc(S2(c3ccc(N)cc3)C=C(c3ccccc3)C(c3ccccc3)=C2)cc1`, the TGI in test [1] is more than 90.5 µM; in test [2], more than 100 µM; in test [3], more than 85.5 µM; in test [4], more than 100 µM; in test [5] it was more than 22.6 µM; in test [6], more than 100 µM. Besides, the figures for the TGI in test [7] and in test [8] were more than 100 µM and more than 90.3 µM, respectively.

On to `CN(C)CCOC1(Cc2ccc(F)cc2)CCC(C(C)(C)C)CC1` (stereo not drawn), for which the TGI in test [1] is 19.2 µM and 18.2 µM; in test [2] it was 5.09 µM and 7.79 µM; in test [3], 20.5 µM and 24.7 µM; in test [4] it was 7.95 µM and 10.6 µM; in test [5], 19.4 µM and 21 µM; in test [6], 11.9 µM and 13.1 µM. Further, the TGI in test [7] was 32.3 µM and 28 µM; in test [8] it was 21.4 µM and 22.3 µM.

With `COc1ccc2cc(C(C)C(=O)N3CCOC3=O)ccc2c1` (stereo not drawn), the TGI in test [1], in test [2], in test [3], in test [4], in test [5] and in test [6] was more than 100 µM throughout. Also, the TGI in test [7] and in test [8] was more than 100 µM each time.

As to `C=C1CN2CC(=C)CN(C1)CS(=O)(=O)N1CC(=C)CN(CC(=C)C1)S(=O)(=O)N1CC(=C)CN(CC(=C)C1)S(=O)(=O)C2`, the TGI in test [1] was more than 100 µM; in test [2], more than 100 µM; in test [3] it was 51.5 µM; in test [4] it was 86.4 µM; in test [5] it was more than 100 µM; in test [6] it was more than 100 µM. Also, the TGI in test [7] is 86.1 µM; in test [8], more than 100 µM.

As to `O=C(O)/C=c1/c2ccccc2n2nc3ccccc3c12`, the TGI in test [1] was more than 100 µM; in test [2], 70.1 µM; in test [3], more than 100 µM; in test [4], 96.2 µM; in test [5] it was more than 100 µM; in test [6] it was more than 100 µM. Besides, the TGI in test [7] is 78.8 µM; in test [8] it was more than 100 µM.

Regarding `CC(C)(C)OC(=O)NCCCNC1(c2cc3ccccc3s2)CCCCC1`, the TGI in test [1] was determined as 25.4 µM; in test [2], 13.7 µM; in test [3], 32 µM; in test [4], 30.9 µM; in test [5], 26.8 µM; in test [6], 28.4 µM. Further, the TGI in test [7] stood at 45.7 µM; in test [8] it was 32.2 µM.

As for `C=CCOc1ccc(C2(O)c3ccccc3C3=NCCCN32)cc1` (stereo not drawn), the TGI was more than 100 µM in test [1]; more than 78.5 µM in test [2]; more than 100 µM in test [3]; 27.4 µM in test [4]; more than 100 µM in test [5]; more than 100 µM in test [6]. Further, the TGI in test [7] and in test [8] was more than 100 µM throughout.

Consider `CC(=O)O[C@H]1CC[C@@]2(C)C(=CC[C@H]3[C@@H]4C[C@H](N5CCOCC5)[C@H](OC(C)=O)[C@@]4(C)CC[C@@H]32)C1`, for which the TGI in test [1], in test [2], in test [3], in test [4], in test [5] and in test [6] was more than 100 µM throughout. Also, the TGI in test [7] and in test [8] was more than 100 µM throughout.

Take `CCOC(=O)NC(Nc1cccc(C(F)(F)F)c1)(C(F)(F)F)C(F)(F)F`: the TGI in test [1], in test [2], in test [3], in test [4], in test [5] and in test [6] was more than 100 µM throughout. In addition, the TGI in test [7] and in test [8] was more than 100 µM throughout.

For the compound `CC(=O)NC1c2ccccc2C(C)(C)C12CCC1(CC2)OCCO1` (stereo not drawn), the TGI in test [1], in test [2], in test [3], in test [4], in test [5] and in test [6] was more than 100 µM throughout. Further, the TGI in test [7] and in test [8] was more than 100 µM in each case.

For the compound `O=[N+]([O-])/C(C(Cl)=C(Cl)Cl)=C(\N1CCCCC1)n1cncn1`, the TGI in test [1] is 30.8 µM; in test [2], 57.2 µM; in test [3] it was 33.2 µM; in test [4] it was 30.9 µM; in test [5], 25.2 µM; in test [6], 35.8 µM. Moreover, the TGI in test [7] came to 28.2 µM; in test [8] it was 30.3 µM.

Regarding `COc1ccc2c(c1)CCN1CCc3ccccc3CC21` (stereo not drawn), the TGI is 36 µM in test [1]; 54.9 µM in test [2]; more than 100 µM in test [3]; more than 100 µM in test [4]; more than 100 µM in test [5]; 56.1 µM in test [6]. In addition, the TGI in test [7] and in test [8] was more than 100 µM throughout.

As for `O=C1C(=Cc2ccccc2O)N=C(c2ccccc2)N1n1c(-c2ccccc2)nc2ccccc2c1=O`, the TGI is 86.5 µM in test [1]; more than 100 µM in test [2]; more than 100 µM in test [3]; more than 100 µM in test [4]; 84.8 µM in test [5]; 56.8 µM in test [6]. Moreover, the TGI in test [7] and in test [8] was more than 100 µM each time.

The values above are taken from PubChem BioAssay (NCI).
